Results: patent US20250034151A1, “WEE1 INHIBITOR, PREPARATION THEREFOR, AND USE THEREOF” (JIANGSU TASLY DIYI PHARMACEUTICAL CO., LTD., priority 2022, published 2025)

Key:
CYP1A2 = target: T1, CYP1A2 (Homo sapiens, UniProt P05177); assay: in vitro; details: CYP1A2 enzyme, pH 7.4, probe EOMCC (0.01 mM)
T1 sequence (P05177 1-516): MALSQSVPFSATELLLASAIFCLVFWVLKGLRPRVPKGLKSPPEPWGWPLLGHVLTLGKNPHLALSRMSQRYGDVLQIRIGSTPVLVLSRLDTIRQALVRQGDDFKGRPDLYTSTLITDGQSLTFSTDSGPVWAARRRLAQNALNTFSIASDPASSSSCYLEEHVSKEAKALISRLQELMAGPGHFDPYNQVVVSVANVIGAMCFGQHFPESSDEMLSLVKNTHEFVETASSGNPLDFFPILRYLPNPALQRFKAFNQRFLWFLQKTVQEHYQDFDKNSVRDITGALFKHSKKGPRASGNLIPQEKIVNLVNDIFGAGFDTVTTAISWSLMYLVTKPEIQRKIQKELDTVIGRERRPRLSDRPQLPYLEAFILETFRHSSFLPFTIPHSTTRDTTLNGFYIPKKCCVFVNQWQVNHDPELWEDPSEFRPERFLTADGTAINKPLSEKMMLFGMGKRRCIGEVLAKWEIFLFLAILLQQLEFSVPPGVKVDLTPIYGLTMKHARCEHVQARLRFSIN

CYP2D6 = CYP2D6 (Homo sapiens, UniProt P10635); assay: in vitro; details: CYP2D6 enzyme, pH 7.4, probe EOMCC (0.01 mM)
Chain of CYP2D6 (P10635 whole entry, species assumed): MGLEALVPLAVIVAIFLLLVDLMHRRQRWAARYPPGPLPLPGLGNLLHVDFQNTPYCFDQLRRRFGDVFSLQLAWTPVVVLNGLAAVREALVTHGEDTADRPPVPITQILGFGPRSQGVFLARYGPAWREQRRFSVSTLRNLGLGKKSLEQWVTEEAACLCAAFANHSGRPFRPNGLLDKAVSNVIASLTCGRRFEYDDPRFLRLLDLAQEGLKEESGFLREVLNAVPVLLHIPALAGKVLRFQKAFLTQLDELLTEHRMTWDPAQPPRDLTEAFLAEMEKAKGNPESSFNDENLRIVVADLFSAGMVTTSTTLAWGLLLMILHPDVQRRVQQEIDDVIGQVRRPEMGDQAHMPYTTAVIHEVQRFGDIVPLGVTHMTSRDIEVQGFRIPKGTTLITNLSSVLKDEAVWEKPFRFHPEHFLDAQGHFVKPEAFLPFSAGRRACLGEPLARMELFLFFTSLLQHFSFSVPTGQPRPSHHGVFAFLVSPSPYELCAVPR

CYP2C19 = CYP2C19 (Homo sapiens, UniProt P33261); assay: in vitro; details: CYP2C19 enzyme, pH 7.4, probe EOMCC (0.01 mM)
Chain of CYP2C19 (P33261 whole entry, species assumed): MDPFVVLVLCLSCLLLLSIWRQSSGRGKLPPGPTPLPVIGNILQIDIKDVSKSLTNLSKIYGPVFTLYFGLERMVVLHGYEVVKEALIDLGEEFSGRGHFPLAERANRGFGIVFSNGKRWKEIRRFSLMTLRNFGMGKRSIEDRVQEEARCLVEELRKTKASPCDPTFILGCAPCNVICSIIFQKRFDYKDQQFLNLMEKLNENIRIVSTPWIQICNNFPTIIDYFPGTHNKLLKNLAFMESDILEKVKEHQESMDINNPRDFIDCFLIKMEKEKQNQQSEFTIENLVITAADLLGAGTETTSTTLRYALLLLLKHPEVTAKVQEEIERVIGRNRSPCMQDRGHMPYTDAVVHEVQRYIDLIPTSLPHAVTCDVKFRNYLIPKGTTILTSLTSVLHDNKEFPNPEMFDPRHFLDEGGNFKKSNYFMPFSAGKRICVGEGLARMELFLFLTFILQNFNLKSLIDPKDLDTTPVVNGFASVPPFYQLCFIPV

[1] = Liver microsomes in vitro stability (mouse); assay type: in vitro ADME; details: read-out: T1/2/min
Protocol: 1. Preparation of Working Solution:
Microsomes were taken out from the −80° C. refrigerator, rapidly melted in a 37° C. water bath and placed on ice until ready to use. The test article was diluted with DMSO to prepare a 10 mM stock solution, and then diluted with acetonitrile to a 0.5 mM secondary stock solution. […] NADPH was diluted with Buffer C to a working solution of 6 mM for the starter solution. An acetonitrile solution containing an internal standard was prepared as the precipitant, and Verapamil-HCl was chosen as the internal standard at a concentration of 4 ng/ml.
2. Experimental Procedure:
A round-bottom well plate was taken, noted as the reaction plate, and the prepared working solution for each compound was dispensed into the well plate according to the number of replicates and time points (0 h samples were also added to the reaction plate), 30 μL/well; the plate was incubated at 37° C. for 10 min. A separate plate with pointed bottom wells, noted as a precipitation plate, was added with 135 μL precipitant per well; 0 h samples were transferred to the plate after 10 min incubation and 15 μL of starter solution was added; the plate was placed on ice before centrifugation.
The diluted starter solution was added in sufficient quantity to the dispensing plate to facilitate the multichannel pipette aspiration operation.
The reaction was carried out on a warm incubation shaker and 15 μL of starter solution/sample is added to the plate using a multichannel pipette. The reaction was mixed with a slight shake to initiate the reaction, which was accurately timed and recorded using a timer. In general, samples with shorter reaction times are initiated late and vice versa early, allowing sufficient time for multiple plate manipulation to terminate the reaction. For example, as for the four experiments of 5, 15, 30, and 60 min, the 60 min experiment was started first, and the 5 min experiment was started later, so as to leave sufficient time for the 5 min group.
After the reaction time had elapsed, all the solution in the plate was aspirated using the multichannel pipette and added to the precipitation plate to terminate the reaction at that point in time. After all reactions had been terminated, the plates were shaken for ten minutes on a plate shaker at 600 rpm to precipitate the protein. The plate was centrifuged at 4° C. for 15 minutes at maximum rpm. 80 μL of supernatant was taken, 320 μL of pure water was added and mixed for LC-MS analysis.

Structure (SMILES) | inhibition at 30 min, 1 µM (CYP1A2) [%] | inhibition at 30 min, 10 µM (CYP1A2) [%] | inhibition at 30 min, 1 µM (CYP2D6) [%] | inhibition at 30 min, 10 µM (CYP2D6) [%] | inhibition at 30 min, 1 µM (CYP2C19) [%] | inhibition at 30 min, 10 µM (CYP2C19) [%] | half-life at 1 µM [1] [min]
C=CCn1c(=O)c2cnc(Nc3ccc(N4CCN(C)CC4)cc3)nc2n1-c1cccc(C(C)(C)O)n1 [AZD1775] | 20.2 | 17.5 | 3.4 | 1.5 | 25.4 | 71.9 | 
C=CCn1c(=O)c2cnc(Nc3ccc(N4CC5CC(C4)N5C)cc3)nc2n1-c1cccc(C(C)(C)O)n1 [Compound 27] |  |  |  |  |  |  | 33
